This passage reports melting point results from a melting point compilation (Tetko et al.).

One may read the melting point as the temperature, or range, at which the solid turns liquid.

`CN1CCC23C(=O)CC4C(=CCOC5CC(=O)N(c6c(O)cccc62)C3C54)C1` (centres undefined) registered a melting point of 282 °C.
Compound `FC(F)(F)CCl` displayed a melting point of -106 °C.
Turning to `CCCCOC(=O)CC`, the melting point is -75 °C.
The same measure for `Cn1cc(S(=O)(=O)Cl)c(C(F)(F)F)n1`: 34 to 36 °C; for `NCCCCCCC(=O)O`: 195 °C; for `CCC1CC(OC(=O)c2ccc([N+](=O)[O-])cc2)CC(C)(C)N1O` (centres undefined): 145 to 147 °C.
Consider `FC(F)(F)c1cc(-c2n[nH]c(=S)[nH]2)cc(C(F)(F)F)c1`, for which the melting point stood at 280 °C.
The compound `c1cc2c3c(cccc3c1)CNC2` had a melting point of 99 °C.
In turn, `N#Cc1ccc2c(c1)COC2=O` registered a melting point of 201 to 205 °C.
`CC(C)=CCCC(C)=CC=CC(C)=CC=CC(C)=CC=CC=C(C)C=CC=C(C)C=CC=C(C)CCC=C(C)C` yielded a melting point of 175 °C.
In turn, `O=C1C=C(O)c2cccc3cccc1c23` returned a melting point of 261 to 264 °C.
Compound `Cc1noc(-c2ccccc2)c1CO` yielded a melting point of 109 to 110 °C.
On to `Cc1cc(C)c(C#N)c(C)c1`, for which the melting point was determined as 53 °C.
For `O=C(O)COc1ccc(C(=O)c2cccs2)c(Cl)c1Cl`, the melting point is 149 °C.
For the compound `Cn1nnc2cc(C=O)ccc21`, the melting point worked out at 162 °C.
Regarding `CC(=O)C(C#N)c1ccccc1[N+](=O)[O-]` (centres undefined), the melting point amounted to 72 °C.
Compound `CCOc1ccc(C(NC(=O)c2ccccc2)NC(=O)c2ccccc2)cc1OC` had a melting point of 211 °C.
The compound `NC(=O)Nc1ccc(C2=NNC(=O)CC2)cc1` showed a melting point of 215 to 218 °C.
The same measure for `CCOC(=O)Oc1c(-c2ccccc2)n(C(C)=O)c2cc([N+](=O)[O-])ccc12`: 133 °C; for `O=[N+]([O-])c1c(N2CCCCC2)cc(Cl)c2nonc12`: 159 to 161 °C.
`CC12CCC3C(CC=C4CC(O)CCC43C)C1CCC2=O` (single isomer, unassigned; (+)): the melting point lay within 146 to 151 °C.
Compound `COC(=O)C1=C(C)NC(C)=C(C(=O)OC)C1c1ccccc1[N+](=O)[O-]` had a melting point of 173 °C.
With `NC(=NO)c1cccc(Cl)c1`, the melting point lay in the range of 115 to 117 °C.
`CCCCOCCOCCOCCO` returned a melting point of -30 °C.
Regarding `CCOC(=O)c1cn2c(n1)sc1ccccc12`, the melting point lay in the range of 133 to 134 °C.
Consider `CCOC(=O)CCC(NP(=O)(OC)C(C)NC(=O)CCCCN1C(=O)c2ccccc2C1=O)C(=O)OCC` (centres undefined), for which the melting point was 79 to 82 °C.
The same measure for `CN1CCCN(c2ccc(CO)cc2)CC1`: 97 °C.
With `CCCCOCCOCCCC`, the melting point was -69.1 °C.
On to `Cn1ccc(=O)[nH]c1=O`, for which the melting point was 237 °C.
The same measure for `COC(=O)[C@@H](NC(=O)OCc1ccccc1)[C@@H](C)O`: 92 to 94 °C.
`c1ccc(-c2ccc3c4c(c5c(c3c2)CCCC5)CCCC4)cc1` yielded a melting point of 136 °C.
`O=C(O)C(Br)c1ccccc1Cl` (centres undefined) registered a melting point of 107 °C.
For `O=C(O)c1cnn(-c2ccccc2)c1C(F)(F)F`, the melting point was in the range of 139 to 141 °C.
On to `O=C(NCCO)C1CCCNC1` (centres undefined), for which the melting point was 119 °C.
For `CC12CCC(O)C(C)(C)C1C(=O)C(=O)c1c(O)c(C(CO)CO)c(O)c(O)c12` (centres undefined), the melting point is 238 to 240 °C.
Compound `Cc1cc(C(=O)Cl)nn1C` came in with a melting point of 73 to 74 °C.
`O=C(c1ccc2ccccc2c1)c1noc(-c2cccc3ccccc23)c1S(=O)(=O)c1ccccc1` showed a melting point of 115 °C.
`Cn1cnc(C=O)c1` gave a melting point of 68 to 69 °C.
For `O=C(Nc1cc([N+](=O)[O-])ccc1C(=O)O)c1ccccc1`, the melting point was 252 °C.
On to `CC12CCC(O)CC1CCC1C2CCC2(C)C1CCC21OCCO1` (centres undefined), for which the melting point was 151 °C.
The same measure for `O=C(O)c1cc(I)ccc1Br`: 175 °C; for `Brc1ccc(Oc2ccc(Br)c(Br)c2Br)c(Br)c1`: 119 to 121 °C; for `CC(C)(O)C(Br)(Br)Br`: 169 °C.
The same measure for `Fc1ccc(C(Br)Br)c(C(Br)Br)c1`: 92 to 97 °C; for `N#Cc1c2ccccc2c(C#N)c2ccccc12`: 337 °C; for `CS(=O)(=O)c1ccc(C=O)cc1`: 155 to 161 °C.
In turn, `O=C(O)c1csnn1` registered a melting point of 233 to 235 °C.
Compound `S=c1sc2ccccc2n1CCl` had a melting point of 126 to 131 °C.
In turn, `CC(C)(OCc1ccc(-c2ccc(Cl)cc2)cc1)C(=O)O` yielded a melting point of 154 °C.
Compound `COC(=O)c1cc2ccccc2n1C(=O)OC(C)(C)C` displayed a melting point of 66 to 67 °C.
Consider `C#CC1(O)CCC2C3CCC4=CC(=O)CCC4C3CCC21CC` (centres undefined), for which the melting point came to 240 °C.
Take `c1cnc2c(SSc3cccc4cccnc34)cccc2c1`: the melting point lay in the range of 205 to 206 °C.
The same measure for `CCOC(=O)C1=C(C)Nc2ccccc2S1`: 143 °C.
With `CCCC1C(=O)N2C(N(C)C)=Nc3ccc(C)cc3N2C1=O` (centres undefined), the melting point came to 228 °C.
For the compound `O=C1CC2C(Br)CC1C2C(=O)O` (centres undefined), the melting point lay within 178 to 182 °C.
The compound `NC(=O)c1ccccc1OC(F)(F)F` showed a melting point of 154 °C.
On to `CC(C)(C)OC(=O)N[C@@H]1CC[C@H](C(=O)O)C1`, for which the melting point was found to be 112 °C.
For the compound `O=Nc1ccc(O)c(N=O)c1O`, the melting point was determined as 168 °C.
As to `Clc1c(Cl)c(Cl)c2ccccc2c1Cl`, the melting point is 198 °C.
For `Cc1nn(C)c2sc(CO)cc12`, the melting point lay within 133 to 135 °C.
`NC(=O)OCCCc1ccccc1` came in with a melting point of 102 °C.
The same measure for `CON(C)C(=O)C=P(c1ccccc1)(c1ccccc1)c1ccccc1`: 183 °C; for `COC1CC1`: -119 °C.
In turn, `Clc1nccc2ccccc12` yielded a melting point of 34 °C.
Regarding `N#CC1(C#N)C2COC(C3=C2CCCC3)C1(C#N)C#N` (centres undefined), the melting point came to 173 °C.
With `CCP(=O)(c1ccccc1)c1ccccc1`, the melting point was found to be 122 °C.
As for `COc1ccc(C=Nn2c(S)nnc2CCn2c(C)nc3ccccc32)cc1`, the melting point was determined as 262 °C.
The compound `Cc1c(C)c(C)c(C#N)c(C)c1C` had a melting point of 159 °C.
The compound `O=C(/C(=N\Nc1cccc(O)c1)S(=O)(=O)c1ccccc1)c1ccc(Cl)cc1` returned a melting point of 125 °C.
The same measure for `O=C(O)C1OC(OCC(Cl)(Cl)Cl)C(O)C(O)C1O` (centres undefined): 142 °C.
`CCOC(=O)c1cc2cc3ccccc3cc2cc(C(=O)OCC)c1=O`: the melting point amounted to 161 °C.
The compound `CCCCOCCOCCOC(C)=O` registered a melting point of -32 °C.
Compound `Cc1cc(C(=O)O)cc(Cl)n1` registered a melting point of 193 °C.
The same measure for `Nc1c(C(=O)O)cccc1[N+](=O)[O-]`: 211 °C; for `Cc1nc(N)ccc1Br`: 82 to 83 °C.
Take `CCOC(=O)CCCOc1ccccc1NC(=O)c1ccc2c(c1)CC1(CCC(c3ccc(C(C)(C)C)cc3)CC1)C2` (centres undefined): the melting point is 112 °C.
`O=C(Nc1cccnc1Cl)c1ccccc1Cl`: the melting point is 115 to 117 °C.
`OCC(I)CC(F)(F)C(F)(F)C(F)(F)C(F)(F)C(F)(F)C(F)(F)F` (centres undefined) yielded a melting point of 45 to 46 °C.
Take `CC(C)=NN(c1ccccc1)P(=O)(N1CC1)N1CC1`: the melting point was found to be 120 °C.
The compound `COc1cc(F)c(OC)cc1F` yielded a melting point of 121 °C.
Turning to `NS(=O)(=O)C=Cc1ccccc1`, the melting point fell in the range of 138 to 140 °C.
The compound `Cn1c(=O)c(C2=NNC(=O)C2=Cc2cccc(Cl)c2)c(O)c2ccccc21` had a melting point of 265 °C.
In turn, `CCCCCCCCNCCCCCCCC` showed a melting point of 35.5 °C.
Turning to `COC(=O)c1cccc2cc[nH]c12`, the melting point is 46 to 47 °C.
`CC(=O)Nc1ccc(C)c(NS(=O)(=O)C(F)(F)F)c1` yielded a melting point of 176 °C.
Regarding `Oc1cccc2cc3cccc(O)c3c(O)c12`, the melting point amounted to 178 °C.
On to `Nc1cc(F)ccc1F`, for which the melting point was 14 °C.
In turn, `CN1CCN(Cc2cccc(I)c2)CC1` registered a melting point of 81 to 83 °C.
Regarding `COC(=O)CSCCC(N)=S`, the melting point was in the range of 78 to 81 °C.
As to `Cc1cc(C)c(CS)c(C)c1`, the melting point stood at 47 °C.
In the case of `O=C(O)Cc1ccccc1C(F)(F)F`, the melting point is 100 to 102 °C.
As for `O=C(O)COc1cccc2ccccc12`, the melting point is 196 °C.
The same measure for `Cc1ccc2c(C)cccc2c1`: -16.9 °C; for `COc1ccccc1N1CCN(CC(N)=S)CC1`: 130 to 132 °C.
`CCCC(=NOCC)C1=C(O)CC(C2CCCSC2)CC1=O` (centres undefined) came in with a melting point of 37.1 °C.
The compound `CSc1[nH]nc(N)c1C#N` came in with a melting point of 190 °C.
For the compound `C(=CC=Cc1ccccc1)C=Cc1ccccc1`, the melting point is 199 to 203 °C.
`CC(=O)Nc1ccc(Br)cc1F` had a melting point of 156 °C.
Compound `ClCc1csc2ccc(Br)cc12` registered a melting point of 106 to 108 °C.
The same measure for `Cc1[nH]nc(C(F)(F)C(F)(F)C(F)(F)F)c1[N+](=O)[O-]`: 97 to 98 °C; for `O=C(O)COc1ccc(OCC(=O)O)cc1`: 248 to 251 °C.
Compound `c1ccc(N2CN(c3ccccc3)CN(c3ccccc3)C2)cc1` yielded a melting point of 191 °C.
In turn, `Cc1c([N+](=O)[O-])c(C)c([N+](=O)[O-])c(C(C)(C)C)c1[N+](=O)[O-]` displayed a melting point of 110 °C.
`Cc1ccc(/N=N/C2C(=O)NN(c3ccccc3)C2=O)cc1` (centres undefined): the melting point worked out at 247 °C.
In turn, `Cc1c(/C=C/c2ccc(Cl)cc2Cl)c2ccccc2n1S(=O)(=O)c1ccccc1` gave a melting point of 110 °C.
`C=CCC1(c2ccccc2)C(=O)NC(=O)NC1=O` came in with a melting point of 156 °C.
`COc1ccc(C(c2c(O)cc(C)oc2=O)c2c(O)cc(C)oc2=O)cc1` registered a melting point of 163 to 165 °C.
The compound `Cc1ccc(C(c2ccc(C(c3ccc(C)o3)c3ccc(C)o3)cc2)c2ccc(C)o2)o1` registered a melting point of 156 °C.
`CC(C)(O)C(Cl)(Cl)Cl` gave a melting point of 97 °C.
